# According to patent US10173991B2, “Sulfone amide linked benzothiazole inhibitors of endothelial lipase” (BRISTOL-MYERS SQUIBB COMPANY, priority 2014, dated 2019):
# Target: Endothelial lipase (EL) (Homo sapiens (Human), UniProt Q9Y5X9)
# Assay: Endothelial lipase (EL) enzymatic assay with fluorescent substrate A10070 in DMPG vesicles
# Format: biochemical
# Settings: not given
# Method in brief: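 Substrate A10070 sits in sonicated DMPG vesicles at 0.11 mole fraction. Lipase and compound preincubated 30 min, 37° C, in HEPES pH 8.0 buffer with CaCl2.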
# Endothelial lipase (EL), sequence (Q9Y5X9 21-500): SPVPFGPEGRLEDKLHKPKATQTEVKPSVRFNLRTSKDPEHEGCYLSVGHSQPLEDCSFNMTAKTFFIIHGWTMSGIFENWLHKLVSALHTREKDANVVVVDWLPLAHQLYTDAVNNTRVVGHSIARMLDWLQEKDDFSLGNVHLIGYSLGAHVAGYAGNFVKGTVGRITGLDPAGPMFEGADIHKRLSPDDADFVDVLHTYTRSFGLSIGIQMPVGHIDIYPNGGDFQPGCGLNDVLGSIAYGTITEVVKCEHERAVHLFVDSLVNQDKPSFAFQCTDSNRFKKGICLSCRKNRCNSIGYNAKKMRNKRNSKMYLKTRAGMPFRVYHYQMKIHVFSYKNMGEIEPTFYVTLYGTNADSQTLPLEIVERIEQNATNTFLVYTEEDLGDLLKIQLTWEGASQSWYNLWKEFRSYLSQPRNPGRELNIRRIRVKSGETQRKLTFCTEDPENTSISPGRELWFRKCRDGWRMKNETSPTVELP
row,SMILES,IC50 [nM]
1,"COC1(C)CN(C(=O)c2ccc(-c3ccc4nc(C(C(=O)NCC(=O)NC5CC5)S(=O)(=O)c5ccccc5)sc4c3)cc2)C1 (stereo not drawn) [Example 401, 2-(benzenesulfonyl)-N-[(cyclopropyl-carbamoyl)methyl]-2-{6-[4-(3-methoxy-3-methylazetidine-1-carbonyl)phenyl]-1,3-benzothiazol-2-yl}acetamide]",5
2,"CC1(O)CN(C(=O)c2ccc(-c3ccc4nc(C(C(=O)NCC(=O)NC5CC5)S(=O)(=O)c5ccccc5)sc4c3)cc2)C1 (stereo not drawn) [Example 402, 2-(benzenesulfonyl)-N-[(cyclopropyl-carbamoyl)methyl]-2-{6-[4-(3-hydroxy-3-methylazetidine-1-carbonyl)phenyl]-1,3-benzothiazol-2-yl}acetamide]",6
3,"COCCS(=O)(=O)C(C(=O)NCC(=O)NC1CC1)c1nc2ccc(-c3ccc(C(=O)N4CC[C@H](OC)C4)cc3)cc2s1 (stereo partly drawn) [Example 403, N-[(cyclopropyl-carbamoyl)methyl]-2-(2-methoxyethane-sulfonyl)-2-(6-{4-[(3S)-3-methoxy-pyrrolidine-1-carbonyl]phenyl}-1,3-benzothiazol-2-yl)acetamide]",8
4,COCCS(=O)(=O)C(C(=O)NCC(=O)NC1CC1)c1nc2ccc(-c3ccc(C(=O)N4CC(F)C4)cc3)cc2s1 (stereo not drawn) [Example 404],10
5,"COCCS(=O)(=O)C(C(=O)NCC(=O)NC1CC1)c1nc2ccc(-c3ccc(C(=O)N4CC(C)(O)C4)cc3)cc2s1 (stereo not drawn) [Example 405, N-[(cyclopropyl-carbamoyl)methyl]-2-{6-[4-(3-hydroxy-3-methylazetidine-1-carbonyl)phenyl]-1,3-benzothiazol-2-yl}-2-(2-methoxyethane-sulfonyl)acetamide]",12
6,"COCCS(=O)(=O)C(C(=O)NCC(=O)NC1CC1)c1nc2ccc(-c3ccc(C(=O)N4CC(F)(F)C4)cc3)cc2s1 (stereo not drawn) [Example 406, N-[(cyclopropyl-carbamoyl)methyl]-2-{6-[4-(3,3-difluoroazetidine-1-carbonyl)phenyl]-1,3-benzothiazol-2-yl}-2-(2-methoxyethane-sulfonyl)acetamide]",13
7,"COCCS(=O)(=O)C(C(=O)NCC(=O)NC1CC1)c1nc2ccc(-c3ccc(C(=O)N4CC[C@@H](OC)C4)cc3)cc2s1 (stereo partly drawn) [Example 407, N-[(cyclopropyl-carbamoyl)methyl]-2-(2-methoxyethane-sulfonyl)-2-(6-{4-[(3R)-3-methoxy-pyrrolidine-1-carbonyl]phenyl}-1,3-benzothiazol-2-yl)acetamide]",24
8,"COCCS(=O)(=O)C(C(=O)NCC(=O)NC1CC1)c1nc2ccc(-c3ccc(C(=O)O)cc3)cc2s1 (stereo not drawn) [Example 408, 4-[2-({[(cyclopropyl-carbamoyl)methyl]carbamoyl}(2-methoxyethane-sulfonyl)methyl)-1,3-benzothiazol-6-yl]benzoic acid]",48
9,"COCCNC(=O)c1ccc(-c2ccc3nc(C(C(=O)NCC(=O)NC4CC4)S(=O)(=O)CCOC)sc3c2)cc1OC (stereo not drawn) [Example 409, 4-[2-({[(cyclopropyl-carbamoyl)methyl]carbamoyl}(2-methoxyethane-sulfonyl)methyl)-1,3-benzothiazol-6-yl]-2-methoxy-N-(2-methoxyethyl) benzamide]",23
10,"COCCNC(=O)c1ccc(-c2ccc3nc(C(C(=O)NCC(=O)NC4CC4)S(C)(=O)=O)sc3c2)cc1OC (stereo not drawn) [Example 410, 4-[2-({[(cyclopropyl-carbamoyl)methyl]carbamoyl} (methanesulfonyl)methyl)-1,3-benzothiazol-6-yl]-2-methoxy-N-(2-methoxyethyl) benzamide]",53
11,"Cc1ccn(-c2cccc(-c3ccc4nc(C(C(=O)NCC(=O)NC5CC5)S(C)(=O)=O)sc4c3)n2)n1 (stereo not drawn) [Example 412, N-[(cyclopropyl-carbamoyl)methyl]-2-methanesulfonyl-2-{6-[6-(3-methyl-1H-pyrazol-1-yl)pyridin-2-yl]-1,3-benzothiazol-2-yl}acetamide]",14
12,"Cc1cnn(-c2cccc(-c3ccc4nc(C(C(=O)NCC(=O)NC5CC5)S(C)(=O)=O)sc4c3)n2)c1 (stereo not drawn) [Example 413, N-[(cyclopropyl-carbamoyl)methyl]-2-methanesulfonyl-2-{6-[6-(4-methyl-1H-pyrazol-1-yl)pyridin-2-yl]-1,3-benzothiazol-2-yl}acetamide]",7
13,"COCCS(=O)(=O)C(C(=O)NCC(=O)NC1CC1)c1nc2cc(F)c(-c3ccc(-c4cc(O)n[nH]4)cc3)cc2s1 (stereo not drawn) [Example 415, N-[(cyclopropyl-carbamoyl)methyl]-2-{5-fluoro-6-[4-(3-hydroxy-1H-pyrazol-5-yl)phenyl]-1,3-benzothiazol-2-yl}-2-(2-methoxyethane-sulfonyl)acetamide]",49
14,"COCCS(=O)(=O)C(C(=O)NCC(=O)NC1CC1)c1nc2cc(F)c(-c3ccc4c(c3)CCN4C(C)=O)cc2s1 (stereo not drawn) [Example 416, 2-[6-(1-acetyl-2,3-dihydro-1H-indol-5-yl)-5-fluoro-1,3-benzothiazol-2-yl]-N-[(cyclopropyl-carbamoyl)methyl]-2-(2-methoxyethane-sulfonyl)acetamide]",11
15,"COCCS(=O)(=O)C(C(=O)NCC(=O)NC1CC1)c1nc2cc(F)c(-c3ccc4c(c3)OCC(=O)N4)cc2s1 (stereo not drawn) [Example 417, N-[(cyclopropyl-carbamoyl)methyl]-2-[5-fluoro-6-(3-oxo-3,4-dihydro-2H-1,4-benzoxazin-7-yl)-1,3-benzothiazol-2-yl]-2-(2-methoxyethane-sulfonyl)acetamide]",35
16,"COCCS(=O)(=O)C(C(=O)NCC(=O)NC1CC1)c1nc2cc(F)c(-c3ccc4c(c3)CCCN4C(=O)OC(C)(C)C)cc2s1 (stereo not drawn) [Example 418, tert-butyl 6-[2-({[(cyclopropyl-carbamoyl)methyl]carbamoyl}(2-methoxyethane-sulfonyl)methyl)-5-fluoro-1,3-benzothiazol-6-yl]-1,2,3,4-tetrahydro-quinoline-1-carboxylate]",9
17,"COCCS(=O)(=O)C(C(=O)NCC(=O)NC1CC1)c1nc2cc(F)c(-c3ccc4c(c3)OCCN4C(=O)OCc3ccccc3)cc2s1 (stereo not drawn) [Example 419, benzyl 7-[2-({[(cyclopropyl-carbamoyl)methyl]carbamoyl}(2-methoxyethane-sulfonyl)methyl)-5-fluoro-1,3-benzothiazol-6-yl}-3,4-dihydro-2H-1,4-benzoxazine-4-carboxylate]",9
18,"COCCS(=O)(=O)C(C(=O)NCC(=O)NC1CC1)c1nc2cc(F)c(-c3ccc(-c4nn[nH]n4)c(F)c3)cc2s1 (stereo not drawn) [Example 420, N-[(cyclopropyl-carbamoyl)methyl]-2-{5-fluoro-6-[3-fluoro-4-(2H-1,2,3,4-tetrazol-5-yl)phenyl]-1,3-benzothiazol-2-yl}-2-(2-methoxyethane-sulfonyl)acetamide]",11
19,"COC(=O)Nc1ccc(-c2cc3sc(C(C(=O)NCC(=O)NC4CC4)S(=O)(=O)CCN4CCOCC4)nc3cc2F)cc1 (stereo not drawn) [Example 422, methyl N-{4-[2-({[(cyclopropyl-carbamoyl)methyl]carbamoyl}[2-(morpholin-4-yl)ethanesulfonyl]methyl)-5-fluoro-1,3-benzothiazol-6-yl]phenyl} carbamate]",3
20,"O=C(CNC(=O)C(c1nc2cc(F)c(-c3ccc(NC(=O)OCc4ccccc4)cc3)cc2s1)S(=O)(=O)CCN1CCOCC1)NC1CC1 (stereo not drawn) [Example 423, benzyl N-{4-[2-({[(cyclopropyl-carbamoyl)methyl]carbamoyl}[2-(morpholin-4-yl)ethanesulfonyl]methyl)-5-fluoro-1,3-benzothiazol-6-yl]phenyl} carbamate]",1
21,"O=C(CNC(=O)C(c1nc2cc(F)c(-c3ccc(NC(=O)OCc4ccccc4)nc3)cc2s1)S(=O)(=O)CCN1CCOCC1)NC1CC1 (stereo not drawn) [Example 424, benzyl N-{5-[2-({[(cyclopropyl-carbamoyl)methyl]carbamoyl}[2-(morpholin-4-yl)ethanesulfonyl]methyl)-5-fluoro-1,3-benzothiazol-6-yl]pyridin-2-yl} carbamate]",15
22,"CC(C)c1cc(CNC(=O)c2ccc3sc(C(C(=O)NCC(=O)NC4CC4)S(=O)(=O)Cc4ccc(F)cc4)nc3c2)on1 (stereo not drawn) [Example 426, 2-({[(cyclopropyl-carbamoyl)methyl]carbamoyl}(4-fluorophenyl)methanesulfonyl-methyl)-N-{[3-(propan-2-yl)-1,2-oxazol-5-yl]methyl}-1,3-benzothiazole-5-carboxamide]",62
23,"COCCS(=O)(=O)C(C(=O)NCC(=O)NC1CC1)c1nc2cc(C(=O)OC(C)(C)C)ccc2s1 (stereo not drawn) [Example 427, tert-butyl 2-({[(cyclopropyl-carbamoyl)methyl]carbamoyl}(2-methoxyethane-sulfonyl)methyl)-1,3-benzothiazole-5-carboxylate]",66
24,"COCCS(=O)(=O)C(C(=O)NCC(=O)NC1CC1)c1nc2cc(C(=O)OC(C)(C)C)c(F)cc2s1 (stereo not drawn) [Example 428, tert-butyl 2-({[(cyclopropyl-carbamoyl)methyl]carbamoyl}(2-methoxyethane-sulfonyl)methyl)-6-fluoro-1,3-benzothiazole-5-carboxylate]",12

# Same assay, conditions: EL from conditioned media of HT-1080 cells; 30 min preincubation at 37° C.
row,SMILES,IC50 [nM]
1,"COCCS(=O)(=O)C(C(=O)NCC(=O)NC1CC1)c1nc2cc(F)c(-c3ccc(-c4ncon4)cc3)cc2s1 (stereo not drawn) [Example 411, 2-(6-(4-(1,2,4-Oxadiazol-3-yl)phenyl)-5-fluorobenzo[d]thiazol-2-yl)-N-(2-(cyclopropylamino)-2-oxoethyl)-2-((2-methoxyethyl)sulfonyl)acetamide]",2.1
2,"O=C(CNC(=O)C(c1nc2cc(F)c(-c3ccc(F)nc3)cc2s1)S(=O)(=O)CCN1CCOCC1)NC1CC1 (stereo not drawn) [Example 421, N-[(Cyclopropylcarbamoyl)methyl]-2-[5-fluoro-6-(6-fluoropyridin-3-yl)-1,3-benzothiazol-2-yl]-2-[2-(morpholin-4-yl)ethanesulfonyl]acetamide]",22
3,"COCCS(=O)(=O)C(C(=O)NCC(=O)NC1CC1)c1nc2cc(C(=O)N3CCOCC3)c(F)cc2s1 (stereo not drawn) [Example 425, N-(2-(Cyclopropylamino)-2-oxoethyl)-2-(6-fluoro-5-(morpholine-4-carbonyl)benzo[d]thiazol-2-yl)-2-((2-methoxyethyl)sulfonyl)acetamide]",204
